In patent US4218562A, “Antibiotic derivatives of XK-62-2” (Abbott Laboratories, priority 1978, dated 1980):
Converted amounts (≈) assume the structure as drawn. Read-outs that look alike come from different tables or passages of the source.

Legend:
[1] = test system: Pseudomanas aeruginosa BMH 1; experiment: Agar dilution MIC, pH 8.0: Pseudomonas aeruginosa BMH 1; type: cell-based
[2] = test system: Escherichia coli ATCC 26; experiment: Agar dilution MIC, pH 8.0: Escherichia coli ATCC 26; type: cell-based
[3] = test system: strains of Escherichia coli having an R factor; experiment: Anti-bacterial activity against Escherichia coli having an R factor; type: cell-based; conditions: E. coli having an R factor which shows resistance to known aminoglycoside antibiotics
[4] = test system: Staphylococcus aureus ATCC 6538P; experiment: Agar dilution MIC, pH 8.0: Staphylococcus aureus ATCC 6538P; type: cell-based; conditions: ATCC6538P
[5] = test system: Shigella seanei ATCC 9250; experiment: microbe, parasite or virus in culture; type: cell-based
[6] = test system: Escherichia coli KY 8348; experiment: Agar dilution MIC, pH 8.0: Escherichia coli KY 8348; type: cell-based
Description: (§1) The former bacterium inactivates kanamycins and gentamicins by adenylation, and the latter inactivates gentamicins by acetylation.

[7] = test system: Bacillus subtilis No. 10707; experiment: Agar dilution MIC, pH 8.0: Bacillus subtilis No. 10707; type: cell-based
[8] = test system: Escherichia coli KY 8327; experiment: Agar dilution MIC, pH 8.0: Escherichia coli KY 8327; type: cell-based
Description: as §1

[9] = test system: Proteus vulgaris ATCC 6897; experiment: Agar dilution MIC, pH 8.0: Proteus vulgaris ATCC 6897; type: cell-based
[10] = test system: Krobsiella pneumoniae ATCC 10081; experiment: Agar dilution MIC, pH 8.0: Krobsiella pneumoniae ATCC 10081; type: cell-based
[11] = test system: Salmanella typhosa ATCC 9992; experiment: microbe, parasite or virus in culture; type: cell-based
[12] = test system: Proteus Mirabilis 1287; experiment: Agar dilution MIC, pH 7.2: Proteus Mirabilis 1287; type: cell-based; conditions: pH 7.2, read-out: Minimum Inhibitory Concentration
[13] = test system: staphylococcus aureus Smith; experiment: Agar dilution MIC, pH 7.2: Staphylococcus aureus Smith; type: cell-based; conditions: pH 7.2, read-out: Minimum Inhibitory Concentration
[14] = test system: Proteus vulgaris 6897; experiment: Agar dilution MIC, pH 7.2: Proteus vulgaris 6897; type: cell-based; conditions: Proteus vulgaris, 6897, pH 7.2, read-out: Minimum Inhibitory Concentration
[15] = test system: Pseudomonas aeruginosa KY 8510; experiment: Agar dilution MIC, pH 7.2: Pseudomonas aeruginosa KY 8510; type: cell-based; conditions: KY8510, pH 7.2, read-out: Minimum Inhibitory Concentration
[16] = test system: staphylococcus aureus 209P; experiment: Agar dilution MIC, pH 7.2: Staphylococcus aureus 209P; type: cell-based; conditions: pH 7.2, read-out: Minimum Inhibitory Concentration
[17] = test system: Pseudomonas aeruginosa KY 8512; experiment: Agar dilution MIC, pH 7.2: Pseudomonas aeruginosa KY 8512; type: cell-based; conditions: KY8512, pH 7.2, read-out: Minimum Inhibitory Concentration
Description: ^7 produces neamycinkanamycin phosphotransferase Type

[18] = test system: Escherichia coli T-2; experiment: Agar dilution MIC, pH 7.2: Escherichia coli T-2; type: cell-based; conditions: T2, pH 7.2, read-out: Minimum Inhibitory Concentration
[19] = test system: Escherichia coli T-5; experiment: Agar dilution MIC, pH 7.2: Escherichia coli T-5; type: cell-based; conditions: T5, pH 7.2, read-out: Minimum Inhibitory Concentration
[20] = test system: Escherichia coli KY 8321; experiment: Agar dilution MIC, pH 7.2: Escherichia coli KY 8321; type: cell-based; conditions: KY8321, pH 7.2, read-out: Minimum Inhibitory Concentration
[21] = test system: Proteus marganii KY 4298; experiment: Agar dilution MIC, pH 7.2: Proteus marganii KY 4298; type: cell-based
[22] = test system: Pseudomonas aeruginosa KY 8511; experiment: Agar dilution MIC, pH 7.2: Pseudomonas aeruginosa KY 8511; type: cell-based; conditions: KY8511, pH 7.2, read-out: Minimum Inhibitory Concentration
[23] = test system: Klebsiella pneumoniae No. 8045; experiment: Agar dilution MIC, pH 7.2: Klebsiella pneumoniae No. 8045; type: cell-based; conditions: NO.8045, pH 7.2, read-out: Minimum Inhibitory Concentration
[24] = test system: Pseudomonas aeruginosa KY 8516; experiment: Agar dilution MIC, pH 7.2: Pseudomonas aeruginosa KY 8516; type: cell-based; conditions: KY8516, pH 7.2, read-out: Minimum Inhibitory Concentration
[25] = test system: Pseudomonas aeruginosa BMH No. 1; experiment: Agar dilution MIC, pH 7.2: Pseudomonas aeruginosa BMH No. 1; type: cell-based
[26] = test system: Sarcina lucca ATCC 9341; experiment: Agar dilution MIC, pH 7.2: Sarcina lucca ATCC 9341; type: cell-based; conditions: ATCC9341, pH 7.2, read-out: Minimum Inhibitory Concentration
[27] = test system: Bacillus subtillus ATCC 6688; experiment: Agar dilution MIC, pH 7.2: Bacillus subtillus ATCC 6688; type: cell-based
[28] = Solubility; type: physicochemical
[29] = ATCC26, agar-dilution method, pH 8.0, read-out: Minimum Inhibitory Concentration
[30] = agar-dilution method, pH 8.0, read-out: Minimum Inhibitory Concentration
[31] = ATCC9250, agar-dilution method, pH 8.0, read-out: Minimum Inhibitory Concentration
[32] = ATCC6897, agar-dilution method, pH 8.0, read-out: Minimum Inhibitory Concentration
[33] = pH 8, read-out: Minimum Inhibitory Concentration

For `CNC[C@@H]1CC[C@@H](NC(=O)[C@@H](O)CCN)[C@@H](O[C@H]2[C@H](O)[C@@H](O[C@H]3OC[C@](C)(O)[C@H](NC)[C@H]3O)[C@H](N)C[C@@H]2NC(=O)[C@@H](O)CCN)O1` [IV, 3-N-2'-N-bis[L-(-)-α-hydroxy-γ-aminobutyryl]XK-62-2], the MIC ([1]; BMH1, agar-dilution method, pH 8.0, read-out: Minimum Inhibitory Concentration) was 8.34 mg/L (≈ 12.5 µM), the MIC [2, 29] was 0.13 mg/L (≈ 0.195 µM) and the anti-bacterial activity [3] was “strong anti-bacterial activity”. It also gave an MIC [4, 30] of 0.13 mg/L (≈ 0.195 µM), an MIC [5, 31] of 0.26 mg/L (≈ 0.391 µM) and an MIC ([6]; Escherichia coli, KY8348, agar-dilution method, pH 8.0, strain produces gentamicin acetyltransferase Type I, read-out: Minimum Inhibitory Concentration) of 0.13 mg/L (≈ 0.195 µM). For the same molecule, the “anti-bacterial activity” value ([6]; comparison of MIC in Table 1, E. coli KY 8348) was “strong anti-bacterial activity”, the MIC ([7]; NO.10707, agar-dilution method, pH 8.0, read-out: Minimum Inhibitory Concentration) was 0.016 mg/L (≈ 0.024 µM) and the MIC ([8]; Escherichia coli, KY8327, agar-dilution method, pH 8.0, strain produces gentamicin adenyltransferase, read-out: Minimum Inhibitory Concentration) was 0.26 mg/L (≈ 0.391 µM). For the same molecule, the “anti-bacterial activity” value ([8]; comparison of MIC in Table 1, E. coli KY 8327) was “strong anti-bacterial activity”, the MIC [9, 32] was 0.521 mg/L (≈ 0.783 µM) and the MIC [10, 30] was 0.065 mg/L (≈ 0.0976 µM). It also gave an MIC [11, 30] of 0.13 mg/L (≈ 0.195 µM).
Molecule `NC[C@H]1O[C@H](O[C@H]2[C@H](O)[C@@H](O[C@H]3O[C@H](CO)[C@@H](O)[C@H](N)[C@H]3O)[C@H](N)C[C@@H]2N)[C@H](O)[C@@H](O)[C@@H]1O` [Kanamycin A, kanamycin A] has an MIC ([1]; BMH1, pH 8, read-out: Minimum Inhibitory Concentration) of 5.2 mg/L (≈ 10.7 µM), an MIC [12] of 6.25 mg/L (≈ 12.9 µM) and an MIC [13] of 0.2 mg/L (≈ 0.413 µM). It also gave an MIC ([2]; ATCC26, pH 8, read-out: Minimum Inhibitory Concentration) of 0.16 mg/L (≈ 0.33 µM), an MIC [14] of 3.12 mg/L (≈ 6.44 µM) and an MIC [15] of 100 mg/L (≈ 206 µM). For the same molecule, the MIC [16] was 0.2 mg/L (≈ 0.413 µM), the MIC [4, 33] was 0.021 mg/L (≈ 0.0433 µM) and the MIC [17] was 12.5 mg/L (≈ 25.8 µM). The MIC ([5]; ATCC9250, pH 8, read-out: Minimum Inhibitory Concentration) was 0.16 mg/L (≈ 0.33 µM), the MIC [18] was 1.56 mg/L (≈ 3.22 µM) and the MIC [19] was 1.56 mg/L (≈ 3.22 µM). It also gave an MIC ([7]; NO.10707, pH 8, read-out: Minimum Inhibitory Concentration) of 0.021 mg/L (≈ 0.0433 µM), an MIC [20] of 100 mg/L (≈ 206 µM) and an MIC ([21]; pH 7.2, read-out: Minimum Inhibitory Concentration) of 1.56 mg/L (≈ 3.22 µM). The MIC [22] was 100 mg/L (≈ 206 µM), the MIC ([9]; ATCC6897, pH 8, read-out: Minimum Inhibitory Concentration) was 0.16 mg/L (≈ 0.33 µM) and the MIC [23] was 0.4 mg/L (≈ 0.826 µM). For the same molecule, the MIC [10, 33] was 0.042 mg/L (≈ 0.0867 µM), the MIC [24] was over 100 mg/L and the MIC ([25]; BMHNO.1, pH 7.2, read-out: Minimum Inhibitory Concentration) was 12.5 mg/L (≈ 25.8 µM). It also gave an MIC [26] of 6.25 mg/L (≈ 12.9 µM), an MIC [11, 33] of 0.088 mg/L (≈ 0.182 µM) and an MIC ([27]; ATCC6688, pH 7.2, read-out: Minimum Inhibitory Concentration) of 0.2 mg/L (≈ 0.413 µM).
With `CNC[C@@H]1CC[C@@H](N)[C@@H](O[C@H]2[C@H](O)[C@@H](O[C@H]3OC[C@](C)(O)[C@H](NC)[C@H]3O)[C@H](N)C[C@@H]2N)O1` [XK-62-2] the solubility ([28]; in chloroform, benzene, ethyl acetate and n-hexane) was “insoluble”, the solubility ([28]; in ethanol and acetone) was “slightly soluble” and the solubility ([28]; in water and methanol) was “well soluble”. The MIC [2, 29] was 0.016 mg/L (≈ 0.0345 µM), the MIC [5, 31] was 0.033 mg/L (≈ 0.0712 µM) and the MIC ([21]; agar dilution method, pH 7.2, read-out: Minimum Inhibitory Concentration) was 0.4 mg/L (≈ 0.863 µM). The MIC [9, 32] was 0.033 mg/L (≈ 0.0712 µM), the MIC [10, 30] was 0.004 mg/L (≈ 0.00863 µM) and the MIC ([25]; BMHNO.1, agar dilution method, pH 7.2, read-out: Minimum Inhibitory Concentration) was 0.78 mg/L (≈ 1.68 µM). The MIC [26] was 0.4 mg/L (≈ 0.863 µM), the MIC [11, 30] was 0.008 mg/L (≈ 0.0173 µM) and the MIC ([27]; ATCC6688, agar dilution method, pH 7.2, read-out: Minimum Inhibitory Concentration) was under 0.05 mg/L.
